Measurements published in PubChem BioAssay (NCI).
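96-well plates; 48 h exposure; 5 concentrations. Endpoints by linear interpolation between flanking doses. Not reached: highest tested concentration assigned. TGI: total growth inhibition.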

Experiments:
Assay in all cases: growth of human tumour cells (NCI), 48 h
OVCAR-4 ovarian = test system: OVCAR-4 ovarian
RXF 393 renal = test system: RXF 393 renal
UACC-257 melanoma = test system: UACC-257 melanoma
U251 CNS = test system: U251 CNS
LOX IMVI melanoma = test system: LOX IMVI melanoma
T-47D breast = test system: T-47D breast
CCRF-CEM leukemia = test system: CCRF-CEM leukemia
NCI-H522 lung = test system: NCI-H522 lung
SR leukemia = test system: SR leukemia
OVCAR-5 ovarian = test system: OVCAR-5 ovarian

N#Cc1c(Nc2ccc(F)cc2)[n+]([O-])c2ccc(Cl)cc2[n+]1[O-]
TGI (OVCAR-4 ovarian): 5.71 µM
TGI (RXF 393 renal): 27.3 µM
TGI (UACC-257 melanoma): 11.9 µM
TGI (U251 CNS): 19.1 µM
TGI (LOX IMVI melanoma): 4.27 µM
TGI (T-47D breast): 38.9 µM
TGI (CCRF-CEM leukemia): > 100 µM

CC1=C(C(=O)OCCc2ccc([N+](=O)[O-])cc2)C(c2ccccc2[N+](=O)[O-])C(C(=O)OC(C)C)=C(C)N1 (centres undefined)
TGI (OVCAR-4 ovarian): > 100 µM
TGI (RXF 393 renal): 35.9 µM
TGI (UACC-257 melanoma): > 100 µM
TGI (U251 CNS): > 100 µM
TGI (NCI-H522 lung): 7.82 µM
TGI (SR leukemia): > 100 µM
TGI (OVCAR-5 ovarian): > 100 µM
TGI (LOX IMVI melanoma): > 100 µM
TGI (T-47D breast): > 100 µM
TGI (CCRF-CEM leukemia): 23.2 µM

Cc1cc2ccccc2c[n+]1CC(O)C[n+]1cc2ccccc2cc1C
TGI (OVCAR-4 ovarian): > 100 µM
TGI (RXF 393 renal): > 100 µM
TGI (UACC-257 melanoma): > 100 µM
TGI (U251 CNS): > 100 µM
TGI (NCI-H522 lung): > 100 µM
TGI (SR leukemia): > 100 µM
TGI (OVCAR-5 ovarian): > 100 µM
TGI (LOX IMVI melanoma): > 100 µM
TGI (T-47D breast): > 100 µM

O=C(CC(O)(C(F)(F)F)C(F)(F)F)C(CCCl)C(O)(C(F)(F)F)C(F)(F)F (centres undefined)
TGI (OVCAR-4 ovarian): > 100 µM
TGI (RXF 393 renal): 70.9 µM
TGI (UACC-257 melanoma): 91.2 µM
TGI (U251 CNS): > 100 µM
TGI (NCI-H522 lung): > 100 µM
TGI (SR leukemia): > 100 µM
TGI (OVCAR-5 ovarian): > 100 µM
TGI (LOX IMVI melanoma): > 100 µM
TGI (T-47D breast): 78 µM
TGI (CCRF-CEM leukemia): > 100 µM

Cc1csc2c1C(=O)c1ccsc1C2=O
TGI (OVCAR-4 ovarian): 3.34 µM
TGI (RXF 393 renal): 11.8 µM
TGI (UACC-257 melanoma): 2.88 µM
TGI (U251 CNS): 13.6 µM
TGI (NCI-H522 lung): 5.16 µM
TGI (SR leukemia): > 45 µM
TGI (OVCAR-5 ovarian): 3.46 µM
TGI (LOX IMVI melanoma): 3.37 µM
TGI (T-47D breast): 4.99 µM
TGI (CCRF-CEM leukemia): > 100 µM

N#CC1=C(N)C(C#N)(C#N)C(c2ccc(F)cc2)C=C1C1CC1 (centres undefined)
TGI (RXF 393 renal): 18.6 µM
TGI (UACC-257 melanoma): 21.1 µM
TGI (U251 CNS): 18.2 µM
TGI (NCI-H522 lung): 14.1 µM
TGI (SR leukemia): 12.9 µM
TGI (OVCAR-5 ovarian): 34.5 µM
TGI (LOX IMVI melanoma): 14.5 µM
TGI (T-47D breast): 29 µM
TGI (CCRF-CEM leukemia): 31.7 µM

O=C(O)C(CCc1ccccn1)c1ccccc1 (centres undefined)
TGI (OVCAR-4 ovarian): > 100 µM
TGI (RXF 393 renal): > 100 µM
TGI (UACC-257 melanoma): > 100 µM
TGI (U251 CNS): > 100 µM
TGI (NCI-H522 lung): > 100 µM
TGI (SR leukemia): > 100 µM
TGI (OVCAR-5 ovarian): > 100 µM
TGI (LOX IMVI melanoma): > 100 µM
TGI (T-47D breast): > 100 µM

COC(=O)c1ccc(-c2nc(C#N)c(N)o2)cc1
TGI (OVCAR-4 ovarian): > 100 µM
TGI (RXF 393 renal): > 100 µM
TGI (UACC-257 melanoma): > 100 µM
TGI (U251 CNS): > 100 µM
TGI (NCI-H522 lung): > 100 µM
TGI (SR leukemia): > 100 µM
TGI (OVCAR-5 ovarian): > 100 µM
TGI (LOX IMVI melanoma): > 100 µM
TGI (T-47D breast): > 100 µM
TGI (CCRF-CEM leukemia): > 100 µM

CC(C)(CO)CNc1nc(N)nc(Cl)c1N
TGI (OVCAR-4 ovarian): > 100 µM
TGI (RXF 393 renal): > 100 µM
TGI (UACC-257 melanoma): > 100 µM
TGI (U251 CNS): > 100 µM
TGI (NCI-H522 lung): > 100 µM
TGI (OVCAR-5 ovarian): > 100 µM
TGI (LOX IMVI melanoma): > 100 µM
TGI (T-47D breast): > 100 µM
TGI (CCRF-CEM leukemia): > 100 µM

O=C(/C=C/c1ccc(-c2ccccc2[N+](=O)[O-])o1)NCc1ccc(C(=O)NCCc2ccccc2)cc1
TGI (OVCAR-4 ovarian): > 100 µM
TGI (RXF 393 renal): > 100 µM
TGI (UACC-257 melanoma): > 100 µM
TGI (U251 CNS): > 100 µM
TGI (NCI-H522 lung): > 100 µM
TGI (SR leukemia): > 100 µM
TGI (OVCAR-5 ovarian): > 100 µM
TGI (LOX IMVI melanoma): > 100 µM
TGI (T-47D breast): > 100 µM

O=[N+]([O-])c1cccc([N+](=O)[O-])c1S(=O)(=O)c1ccccc1
TGI (UACC-257 melanoma): 28.8 µM
TGI (U251 CNS): 23 µM
TGI (OVCAR-5 ovarian): 9.18 µM
TGI (LOX IMVI melanoma): 3.7 µM
TGI (T-47D breast): 4.8 µM

O=c1[nH]c(=O)n(C2OC(COP(=O)(O)OP(=O)(O)O)C(O)C2O)cc1F (centres undefined)
TGI (OVCAR-4 ovarian): > 26.3 µM
TGI (RXF 393 renal): 13.8 µM
TGI (UACC-257 melanoma): > 50 µM
TGI (U251 CNS): > 25.2 µM
TGI (NCI-H522 lung): 34.3 µM
TGI (SR leukemia): > 50 µM
TGI (OVCAR-5 ovarian): > 44.1 µM
TGI (LOX IMVI melanoma): 23 µM
TGI (CCRF-CEM leukemia): > 50 µM

COC(=O)C(/C(=N/NC(=O)c1ccncc1)C(=O)Nc1ccccc1OC)c1nc2ccc(Cl)cc2[nH]c1=O (centres undefined)
TGI (OVCAR-4 ovarian): > 100 µM
TGI (RXF 393 renal): > 100 µM
TGI (UACC-257 melanoma): > 100 µM
TGI (U251 CNS): > 100 µM
TGI (NCI-H522 lung): > 100 µM
TGI (SR leukemia): > 100 µM
TGI (OVCAR-5 ovarian): > 100 µM
TGI (LOX IMVI melanoma): > 100 µM
TGI (T-47D breast): > 100 µM

N#CCCC1C(C#N)C2CC1C1C3C=CC(C3)C21 (centres undefined)
TGI (OVCAR-4 ovarian): > 100 µM
TGI (RXF 393 renal): > 100 µM
TGI (UACC-257 melanoma): > 100 µM
TGI (NCI-H522 lung): > 100 µM
TGI (SR leukemia): > 100 µM
TGI (OVCAR-5 ovarian): > 100 µM
TGI (LOX IMVI melanoma): > 100 µM
TGI (T-47D breast): > 100 µM
TGI (CCRF-CEM leukemia): > 100 µM

NC(N)=N/N=C/c1c(-c2ccc([N+](=O)[O-])cc2)nc2sccn12
TGI (OVCAR-4 ovarian): 2.97 µM
TGI (RXF 393 renal): 7.55 µM
TGI (UACC-257 melanoma): 3.65 µM
TGI (U251 CNS): 2.95 µM
TGI (NCI-H522 lung): 3.83 µM
TGI (OVCAR-5 ovarian): 3.11 µM
TGI (T-47D breast): 3.58 µM

CN(CCc1ccc(Cl)c(Cl)c1)[C@H]1CCCC[C@H]1N1CCCC1
TGI (OVCAR-4 ovarian): > 100 µM
TGI (RXF 393 renal): > 100 µM
TGI (UACC-257 melanoma): > 100 µM
TGI (U251 CNS): > 100 µM
TGI (NCI-H522 lung): > 100 µM
TGI (SR leukemia): > 100 µM
TGI (OVCAR-5 ovarian): > 100 µM
TGI (LOX IMVI melanoma): > 100 µM
TGI (T-47D breast): > 100 µM

COc1ccc(/C=C/c2cc(O)cc(OC)c2)cc1
TGI (OVCAR-4 ovarian): > 100 µM
TGI (RXF 393 renal): > 100 µM
TGI (UACC-257 melanoma): > 100 µM
TGI (U251 CNS): > 100 µM
TGI (NCI-H522 lung): > 100 µM
TGI (SR leukemia): > 100 µM
TGI (OVCAR-5 ovarian): > 100 µM
TGI (T-47D breast): > 100 µM

c1ccc(CCN2CCCCCC2)nc1
TGI (OVCAR-4 ovarian): > 100 µM
TGI (RXF 393 renal): > 100 µM
TGI (U251 CNS): > 100 µM
TGI (NCI-H522 lung): > 100 µM
TGI (OVCAR-5 ovarian): > 100 µM
TGI (LOX IMVI melanoma): > 100 µM
TGI (T-47D breast): > 100 µM
TGI (CCRF-CEM leukemia): > 100 µM

COc1ccc(C2(c3ccc(OC)cc3)OC(=O)c3cccc4cccc2c34)cc1
TGI (OVCAR-4 ovarian): > 100 µM
TGI (RXF 393 renal): > 100 µM
TGI (UACC-257 melanoma): > 100 µM
TGI (U251 CNS): > 100 µM
TGI (SR leukemia): 44.8 µM
TGI (OVCAR-5 ovarian): > 100 µM
TGI (LOX IMVI melanoma): > 100 µM
TGI (T-47D breast): 80.8 µM
TGI (CCRF-CEM leukemia): 7.71 µM

CCCCC[C@@H]1OCO[C@@]2(C)/C=C(C)/C=C/C(=O)O[C@H]([C@@H](C)[C@@H](O)[C@H](C)[C@@]3(O)C[C@@H](O[C@H]4C[C@@H](O)[C@H](O)[C@@H](C)O4)[C@H](C)[C@@H](C)O3)[C@@H](OC)/C=C/C=C(\C)C[C@@H]1[C@@H]2O (stereo in doubt)
TGI (OVCAR-4 ovarian): 8.38 µM
TGI (RXF 393 renal): 1.19 µM
TGI (UACC-257 melanoma): < 0.005 µM
TGI (U251 CNS): 5.36 µM
TGI (NCI-H522 lung): 7.46 µM
TGI (SR leukemia): < 0.005 µM
TGI (OVCAR-5 ovarian): 0.215 µM
TGI (T-47D breast): 9.09 µM
TGI (CCRF-CEM leukemia): 0.455 µM

Cc1c2c3cc(O)ccc3nc-2n(C)c2ccccc12
TGI (RXF 393 renal): 2.86 µM
TGI (UACC-257 melanoma): 8.05 µM
TGI (U251 CNS): 6.91 µM
TGI (SR leukemia): 21.3 µM
TGI (OVCAR-5 ovarian): 8.85 µM
TGI (T-47D breast): 17.1 µM
TGI (CCRF-CEM leukemia): 4.37 µM

CC(C)CCC[C@@H](C)[C@H]1CC[C@H]2[C@@H]3CC=C4C[C@@H](OC(=O)c5cccc6c(=O)c7ccccc7[nH]c56)CC[C@]4(C)[C@H]3CC[C@]12C
TGI (OVCAR-4 ovarian): > 75 µM
TGI (RXF 393 renal): > 75 µM
TGI (UACC-257 melanoma): > 75 µM
TGI (U251 CNS): > 75 µM
TGI (NCI-H522 lung): > 75 µM
TGI (SR leukemia): > 75 µM
TGI (OVCAR-5 ovarian): > 75 µM
TGI (LOX IMVI melanoma): > 75 µM
TGI (T-47D breast): > 75 µM

CC(NC(=O)/C(=C/c1ccccc1O)NC(=O)c1ccccc1)C(=O)O (centres undefined)
TGI (OVCAR-4 ovarian): > 100 µM
TGI (RXF 393 renal): 57.6 µM
TGI (UACC-257 melanoma): > 100 µM
TGI (U251 CNS): > 100 µM
TGI (NCI-H522 lung): 50 µM
TGI (OVCAR-5 ovarian): > 100 µM
TGI (LOX IMVI melanoma): > 100 µM
TGI (T-47D breast): > 100 µM
TGI (CCRF-CEM leukemia): > 100 µM
